{
  "source": "patent US8420621B2",
  "about": "“Methods of using gamma cyclodextrin to control blood glucose and insulin secretion” (Abbott Laboratories, priority 2004, dated 2013)",
  "system": "healthy adult subjects",
  "experiment": "Clinical study: postprandial serum insulin response (ELISA)",
  "type": "in vivo, human",
  "text": "Thirty-two healthy adult subjects received two treatments in a double-masked, randomized, crossover design. The two treatments consisted of 50 g challenges of either maltodextrin or gamma-cyclodextrin. Blood samples were collected over a three-hour period, and breath samples collected over an eight-hour period following consumption of each carbohydrate. […] This study utilized a randomized, double-masked, crossover design, with a 4-14 day washout period between treatments. Before completing the two treatment visits, each subject completed one pre-study gastrointestinal tolerance test visit. Randomization was carried out by sealed envelopes stating which pre-study treatment was to be received, as well as in which sequence the two treatment visits were to be carried out. These envelopes were prepared from randomization schedules generated at Ross Products Division of Abbott Laboratories, Two product coordinators assigned an envelope from the top of the pile to each subject in the order that they passed all screening criteria and were given subject numbers. Besides carrying out randomization, the product coordinators were responsible for study product inventory and serving the appropriate product to subjects at each visit so that other study staff could not become aware of the study product identity. […] At each of the two treatment visits, subjects received 16 fl oz of a study product containing either 50 g of maltodextrin or 50 g of gamma-cyclodextrin. All beverages were served cold in styrofoam cups with lids and straws, labeled only with the subject number, subject initials and visit number, with the intention of hiding any slight differences in appearance that could be visible to study staff or subjects. […] A breath sample was collected for measurement of breath hydrogen. […] After consumption of the study beverage, the subject resumed fasting. Time 0 was designated as the time at which the subject began drinking the study beverage. […] Subjects were limited to the consumption of 8 fl oz of water during this three hour blood collection period. Approximately 10 mL of normal saline was injected into the vein after each blood draw in order to keep the line open and to replace the fluid lost from the blood collected. Insulin was analyzed using DSL-10-1600 Insulin ELISA Kits (Diagnostic Systems Laboratories, mc, Webster, Tex.). […] An acidic stopping solution is then added and the enzymatic turnover of TMB is determined by dual wavelength absorbance measurement at 450 and 620 nanometers. […] is proportional to the concentration of insulin present. […]",
  "data": [
    {"smiles": "OC[C@H]1O[C@@H]2O[C@H]3[C@H](O)[C@@H](O)[C@@H](O[C@H]4[C@H](O)[C@@H](O)[C@@H](O[C@H]5[C@H](O)[C@@H](O)[C@@H](O[C@H]6[C@H](O)[C@@H](O)[C@@H](O[C@H]7[C@H](O)[C@@H](O)[C@@H](O[C@H]8[C@H](O)[C@@H](O)[C@@H](O[C@H]9[C@H](O)[C@@H](O)[C@@H](O[C@H]1[C@H](O)[C@H]2O)O[C@@H]9CO)O[C@@H]8CO)O[C@@H]7CO)O[C@@H]6CO)O[C@@H]5CO)O[C@@H]4CO)O[C@@H]3CO", "note": "[Gamma-Cyclodextrin, Gamma-cyclodextrin]", "values": [
      {"measurement": "Serum insulin area under the curve (AUC), effect versus maltodextrin", "setting": "50 g oral challenge", "result": "significantly reduced"},
      {"measurement": "Positive incremental 120 min serum insulin AUC", "setting": "50 g oral, mean±SEM, n=27 maltodextrin, n=31 gamma-cyclodextrin", "result": "993.4±131.6"},
      {"measurement": "Adjusted peak insulin value compared with maltodextrin", "setting": "50 g oral, p=0.0003", "result": "significantly decreased"},
      {"measurement": "Relative insulinemic response compared to maltodextrin", "setting": "baseline to 120 min, 50 g oral", "result": 51, "unit": "%"}
    ]}
  ]
}
